# Laboratory results from patent publication US6440965B1, “Substituted pyrimidine derivatives, their preparation and their use in the treatment of neurodegenerative or neurological disorders of the central nervous system” (Krenitsky Pharmaceuticals, Inc., priority 1997, dated 2002).
# Tested on: PC12 cells
# Test: Screen for NGF-like activity in cultured PC12 cells (neurite outgrowth, potentiation of NGF)
# Assay type: cell-based, rat
# Conditions: 2 days incubation, with or without a limiting concentration of NGF
# Experimental: Cultured PC12 cells (rat adrenal pheochromocytoma from ATCC) have receptors for NGF. Responses include promotion of neurite outgrowth and elevation of choline acetyltransferase (ChAT) (L. A. Greene and A. S. Tischler, Cell Neurobiol., 3, 373 (1982)).
# The following assay is substantially as described in H L White and P W Scates, Neurochem. Res., 16, 63 (1991). PC12 cells were cultured at 37° C. in DMEM supplemented with fetal bovine serum, horse serum, glutamine, penicillin, streptomycin and non-essential amino acids. Cultures were split 1:4 every 4 or 5 days. Exponentially dividing cells were plated in fresh medium on collagen-coated 12-well plastic dishes. After allowing one day for cell attachment, the medium was replaced with low serum medium, with or without test compounds and also with or without a limiting concentration of NGF, with each condition in triplicate. The medium may contain up to 0.1% ethanol, which was used as a solvent for most compounds being tested. Cells were examined daily for morphological changes using an Olympus IMT-2 inverted research microscope. After 2 days incubation with test compounds, cells and media were transferred to 1.5 mL Eppendorf tubes. Aliquots of 20 uL were reserved for cell counting and viability determination by trypan blue exclusion. The remaining cell suspensions were centrifuged, and the cell pellets were washed once in serum-free medium and finally resuspended in 30 uL of distilled water containing eserine, an inhibitor of acetylcholinesterase. The suspensions were stored at −80° C. until they were assayed for choline acetyltransferase. Compounds are judged NGF-like in this primary screen if they (1) increase the activity of choline acetyltransferase, (2) enhance NGF-stimulated neurite outgrowth or (3) potentiate and appear additive with the action of NGF itself.
row,SMILES,"NGF-like in vitro activity (ChAT increase, enhancement of NGF-stimulated neurite outgrowth and/or potentiation of NGF)"
1,Nc1ncc(Cc2ccc(Cl)cc2)c(NCCCCO)n1 [2-Amino-4-[2-(2-hydroxyethyl)ethylamino]-5-(4-chlorobenzyl)pyrimidine],especially potent activities
2,CN1CCN(c2nc(N)ncc2Oc2ccc(Cl)cc2)CC1 [2-amino-5-(4-chlorophenoxy)-4-(4-methylpiperazino)pyrimidine],especially potent activities
3,Nc1ncc(Oc2ccc(Cl)cc2)c(N2CCN(C=O)CC2)n1 [2-amino-5-(4-chlorophenoxy)-4-(4-formylpiperazino)pyrimidine],especially potent activities
4,Nc1ncc(Cc2ccc(Cl)cc2)c(N2CCC(O)CC2)n1 [2-Amino-5-(4-chlorobenzyl)-4-(4-hydroxypiperidino)pyrimidine],especially potent activities

# Tested on: not given
# Test: not given
# Conditions: not given
row,melting point,SMILES
1,181 to 182 °C,CN(C)c1nc(N)ncc1Cc1ccccc1
2,153 to 157 °C,CC(=O)N1CCN(c2nc(N)ncc2Oc2ccc(Cl)cc2)CC1
3,123 to 125 °C,CC(C)(C)C(=O)OCCN1CCN(c2nc(N)ncc2Oc2ccc(Cl)cc2)CC1
4,229 to 231 °C,O=C(Nc1ccccc1)Nc1ncc(Oc2ccc(Cl)cc2)c(N2CCOCC2)n1
5,93 to 95 °C,Nc1ncc(Oc2ccc(Cl)cc2)c(N2CCNCC2)n1
6,138 to 140 °C,Nc1ncc(Oc2ccc(Cl)cc2)c(N2CCOCC2)n1
7,140 to 141 °C,Cl.Nc1ncc(Oc2ccc(Cl)cc2)c(NCCOCCO)n1
8,121 to 123 °C,Nc1ncc(Oc2ccc(Cl)cc2)c(N2CCN(CCO)CC2)n1

# Tested on: PC-12 cells
# Test: not given
# Conditions: cited from earlier work
row,SMILES,NGF action in cultured PC-12 cells
1,"O=C(CCn1cnc2c(=O)[nH]cnc21)Nc1ccc(C(=O)O)cc1 [AIT-082, 4[[3-(1,6-dihydro-6-oxo-9-purin-9-yl)-1-oxopropyl]amino]benzoic acid]",enhance NGF action

# Tested on: working memory
# Test: not given
# Conditions: mice; cited from earlier work
row,SMILES,age induced working memory deficits
1,"O=C(CCn1cnc2c(=O)[nH]cnc21)Nc1ccc(C(=O)O)cc1 [AIT-082, 4[[3-(1,6-dihydro-6-oxo-9-purin-9-yl)-1-oxopropyl]amino]benzoic acid]",restore age induced working memory deficits
